# Target: hMC4R (Homo sapiens (Human), UniProt P32245)
# Assay: LANCE cAMP assay, hMC4R PAM
# Format: cell-based
# Details: HEK293 cells stably expressing the hMC4R; α-MSH at an EC20 dose
# Experimental: Analysis of pharmacological properties of compounds was performed using the LANCE cAMP kit (Perkin Elmer). HEK293 cells stably expressing the hMC4R were treated with PAM compounds at doses indicated, then incubated with an Alexa Fluor 647-labeled antibody in stimulation buffer according to manufacturer's instructions for 30 min at RT. Next, α-MSH was added (at an EC20 dose or at doses indicated for concentration-response curves), and plates were incubated for 15 minutes at RT, followed by the addition of 10 μL of detection mix. Plates were then incubated for 30 minutes at RT and read on a Viewlux (Perkin Elmer) using 618 and 671 nm emission filters. IBMX was not included in the assay.
# Sequence of hMC4R (P32245 whole entry): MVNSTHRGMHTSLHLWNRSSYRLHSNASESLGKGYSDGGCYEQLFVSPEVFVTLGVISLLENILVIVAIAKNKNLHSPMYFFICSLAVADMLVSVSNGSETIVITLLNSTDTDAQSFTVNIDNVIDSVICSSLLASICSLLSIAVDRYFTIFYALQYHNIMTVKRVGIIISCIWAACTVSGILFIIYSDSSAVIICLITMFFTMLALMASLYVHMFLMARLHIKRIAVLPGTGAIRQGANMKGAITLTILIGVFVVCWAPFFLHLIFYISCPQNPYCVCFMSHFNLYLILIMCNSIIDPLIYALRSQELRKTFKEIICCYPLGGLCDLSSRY
hMC4R PAM LANCE pEC50 Mean,hMC4R PAM LANCE Asym Max,SMILES
6.7,–,O=C(CN1CCC(C2CCCC2)CC1)Nc1c(C(=O)C2CC2)[nH]c2ccc(Cl)cc12 [Example 63]
6.5,–,O=C(CN1CCC(c2ccccc2)CC1)Nc1c(C(=O)C2CC2)[nH]c2ccncc12 [Example 67]
6.5,–,CC(=O)c1[nH]c2ccccc2c1NC(=O)CN1CCC(C2CCCCC2)CC1 [Example 42]
6.6,–,COC(=O)c1[nH]c2ccc(N3CCOCC3)cc2c1NC(=O)CN1CCC(C2CCCCC2)CC1 [Example 61]
6.7,–,COC(=O)c1[nH]c2ccc(N3CCOCC3C)cc2c1NC(=O)CN1CCC(C2CCCCC2)CC1 (stereo not shown) [Example 60]
5.7,–,CC1(C)CCCN(CC(=O)Nc2c(C(=O)C3CC3)[nH]c3ccc(N4CCOCC4)cc23)C1 [Example 53]
6.2,–,COC(=O)c1[nH]c2ccccc2c1NC(=O)CN1CCC(N2CCc3ccccc32)CC1 [Example 49]
6.4,–,CC(C(=O)Nc1c(C(=O)C2CC2)[nH]c2ccccc12)N1CCC(C2CCCC2)CC1 (stereo not shown) [Example 71]
6.1,–,COC(=O)c1[nH]c2ccc(Br)cc2c1NC(=O)CN1CCCC(C)(C)C1 [Example 79]
6,–,COC(=O)c1[nH]c2ccc(Cl)cc2c1NC(=O)CN1CCCC(C)(C)C1 [Example 80]
6.3,–,CC1(C)CCCN(CC(=O)Nc2c(C(=O)C3CC3)[nH]c3ccc(S(C)(=O)=O)cc23)C1 [Example 48]
6.3,–,O=C(CN1CCC(c2ccccc2)CC1)Nc1c(C(=O)C2CC2)[nH]c2ccc(N3CCOCC3)cc12 [Example 69]
6.3,48,COC(=O)c1[nH]c2ccc(Br)cc2c1NC(=O)CN1CCN(C2c3ccccc3-c3ccccc32)CC1 [Example 46]
6,–,CC(=O)c1[nH]c2ccc(Br)cc2c1NC(=O)CN1CCCC(C)(C)C1 [Example 51]
5.7,–,CC1COCCN1c1ccc2[nH]c(C(=O)C3CC3)c(NC(=O)CN3CCCC(C)(C)C3)c2c1 (stereo not shown) [Example 76]
5.9,–,O=C(CN1CCC(c2ccccc2)CC1)Nc1c(C(=O)C2CCC2)[nH]c2ccccc12 [Example 56]
7.1,–,CS(=O)(=O)c1ccc2[nH]c(C(=O)C3CC3)c(NC(=O)CN3CCC(C4CCCCC4)CC3)c2c1 [Example 58]
6.7,–,O=C(CN1CCC(C2CCCC2)CC1)Nc1c(C(=O)C2CC2)[nH]c2ccncc12 [Example 59]
5.6,–,COC(=O)c1[nH]c2ccccc2c1NC(=O)CN1CCN(Cc2ccccc2)C(C)(C)C1 [Example 57]

hMC4R PAM LANCE pEC50 Mean,hMC4R PAM LANCE Asym Max,SMILES
6.6,–,O=C(CN1CCC(C2CCCCC2)CC1)Nc1c(C(=O)C2CC2)[nH]c2ccc(N3CCOCC3)cc12 [Example 66]
5.9,–,COC(=O)c1[nH]c2ccc(C)cc2c1NC(=O)CN1CCC(Cc2ccccc2)CC1 [Example 75]
6,–,COC(=O)c1[nH]c2ccc(Cl)cc2c1NC(=O)C(C)N1CCC(Cc2ccccc2)CC1 (stereo not shown) [Example 78]
5.9,–,CC(=O)c1[nH]c2ccccc2c1NC(=O)CN1CCC(Oc2ccccc2)CC1 [Example 52]
6.1,–,CC(C)=C1CCN(CC(=O)Nc2c(C(=O)C3CC3)[nH]c3ccccc23)CC1 [Example 50]
6.3,–,CC(=O)c1[nH]c2ccncc2c1NC(=O)CN1CCC(C(C)(C)C)CC1 [Example 72]
6,–,O=C(CN1CCC(C2CC2)CC1)Nc1c(C(=O)C2CC2)[nH]c2ccccc12 [Example 54]
6.4,–,CC(=O)c1[nH]c2ccc(Br)cc2c1NC(=O)CN1CCC(Cc2ccccc2)CC1 [Example 44]
6.4,–,CC(=O)c1[nH]c2ccc(Br)cc2c1NC(=O)CN1CCC(c2ccccc2)CC1 [Example 43]
6.4,–,CC(=O)c1[nH]c2ccccc2c1NC(=O)C(C)N1CCC(C2CCCC2)CC1 (stereo not shown) [Example 70]
6.5,–,CC(=O)c1[nH]c2ccccc2c1NC(=O)CN1CCC(C2CCCC2)CC1 [Example 40]
6.5,–,O=C(CN1CCC2(CCCCC2)CC1)Nc1c(C(=O)C2CC2)[nH]c2ccccc12 [Example 65]
6.2,–,O=C(CN1CCN(c2ccccc2)CC1)Nc1c(C(=O)C2CC2)[nH]c2ccncc12 [Example 73]
6.2,–,CC1(C)CCCN(CC(=O)Nc2c(C(=O)C3CC3)[nH]c3ccncc23)C1 [Example 74]
6.4,–,O=C(CN1CCC(C2CCCC2)CC1)Nc1c(C(=O)C2CC2)[nH]c2ccccc12 [Example 41]
6.4,–,O=C(CN1CCC2(CCCC2)CC1)Nc1c(C(=O)C2CC2)[nH]c2ccncc12 [Example 68]
5.8,–,CC(=O)c1[nH]c2ccccc2c1NC(=O)CN1CCC(OC2CCCCC2)CC1 [Example 77]
6.6,–,O=C(CN1CCC(C2CCCCC2)CC1)Nc1c(C(=O)C2CC2)[nH]c2ccncc12 [Example 62]

# Continued, compound first:
SMILES,hMC4R PAM LANCE pEC50 Mean,hMC4R PAM LANCE Asym Max
O=C(CN1CCC(c2ccccc2)CC1)Nc1c(C(=O)C2CC2)[nH]c2ccccc12 [Example 16],6.2,–
COC(=O)c1[nH]c2ccccc2c1NC(=O)CN1CCC(c2ccccc2)CC1 [Example 11],6.5,–
O=C(CN1CCC(C2CCCCC2)CC1)Nc1c(C(=O)C2CC2)[nH]c2ccc(Cl)cc12 [Example 38],6.6,–
COC(=O)c1[nH]c2ccc(Br)cc2c1NC(=O)CN1CCN(c2ccccc2)CC1 [Example 17],6.2,–
COC(=O)c1[nH]c2ccccc2c1NC(=O)CN1CCCC2(CCC2)C1 [Example 29],5.9,–
COC(=O)c1[nH]c2ccc(Cl)cc2c1NC(=O)CN1CCN(c2ccccc2)CC1 [Example 15],6.2,–
O=C(CN1CCC(C2CCCCC2)CC1)Nc1c(C(=O)C2CC2)[nH]c2ccccc12 [Example 37],6.6,–
COC(=O)c1[nH]c2ccc(Cl)cc2c1NC(=O)CN1CCC(Cc2ccccc2)CC1 [Example 21],6.2,–
CC1(C)CCCN(CC(=O)Nc2c(C(=O)C3CC3)[nH]c3ccccc23)C1 [Example 23],6.1,–
CCOC(=O)c1[nH]c2ccncc2c1NC(=O)CN1CCCC(C)(C)C1 [Example 28],5.8,–
COC(=O)c1[nH]c2ccc(Br)cc2c1NC(=O)CN1CCN(c2cccc(OC)c2)C(C)C1 (stereo not shown) [Example 13],6.3,–
Cc1cccc(N2CCN(CC(=O)Nc3c(C(=O)C4CC4)[nH]c4ccc(Br)cc34)CC2)c1C [Example 9],6.4,–
COC(=O)c1[nH]c2cc(Br)ccc2c1NC(=O)CN1CCN(c2ccc(F)cc2)CC1 [Example 6],6.4,–
COC(=O)c1[nH]c2ccc(Br)cc2c1NC(=O)CN1CCSCC1 [Example 36],5.8,–
COC(=O)c1[nH]c2ccc(Br)cc2c1NC(=O)CN1CCN(Cc2ccccc2)CC1 [Example 35],5.8,–
COC(=O)c1[nH]c2ccc(Br)cc2c1NC(=O)CN1CCC(c2ccccc2)CC1 [Example 39],6.6,–
CC(=O)c1[nH]c2ccccc2c1NC(=O)CN1CCN(Cc2ccccc2)CC1 [Example 33],5.6,–
COC(=O)c1[nH]c2ccc(Br)cc2c1NC(=O)CN1CCCCC1 [Example 26],6,–

SMILES,hMC4R PAM LANCE pEC50 Mean,hMC4R PAM LANCE Asym Max
Cc1cccc(N2CCN(CC(=O)Nc3c(C(=O)C4CC4)[nH]c4ccccc34)CC2)c1C [Example 10],6.5,–
COC(=O)c1[nH]c2ccccc2c1NC(=O)C(C)N1CCC(Cc2ccccc2)CC1 (stereo not shown) [Example 30],5.9,–
COC(=O)c1[nH]c2ccc(Br)cc2c1NC(=O)CN1CCC(Cc2ccccc2)CC1 [Example 22],6.2,–
COC(=O)c1[nH]c2ccccc2c1NC(=O)CN1CCN(c2cccc(C(F)(F)F)c2)CC1 [Example 12],6.3,–
COC(=O)c1[nH]c2ccccc2c1NC(=O)CN1CCC(N(C)c2ccccc2)CC1 [Example 45],6.3,–
COC(=O)c1[nH]c2ccc(Br)cc2c1NC(=O)C(C)N1CCC(Cc2ccccc2)CC1 (stereo not shown) [Example 20],6.2,–
COC(=O)c1[nH]c2ccc(Br)cc2c1NC(=O)CN1CCN(c2cccc(C)c2C)CC1 [Example 5],6.5,–
COC(=O)c1[nH]c2ccccc2c1NC(=O)CN1CCC(Oc2ccccn2)CC1 [Example 32],5.8,–
COC(=O)c1[nH]c2ccc(C)cc2c1NC(=O)CN1CCN(c2cccc(OC)c2)C(C)C1 (stereo not shown) [Example 31],5.8,–
CCOC(=O)c1[nH]c2ncccc2c1NC(=O)CN1CCCC(C)(C)C1 [Example 34],5.7,–
COC(=O)c1[nH]c2ccccc2c1NC(=O)CN1CCC(Oc2ccccc2)CC1 [Example 25],6,–
COC(=O)c1[nH]c2ccc(Cl)cc2c1NC(=O)CN1CCC(c2ccccc2)CC1 [Example 4],6.5,–
O=C(CN1CCC(c2ccccc2)CC1)Nc1c(C(=O)C2CC2)[nH]c2ccc(Br)cc12 [Example 8],6.5,–
CC(=O)c1[nH]c2ccccc2c1NC(=O)CN1CCC(c2ccccc2)CC1 [Example 19],6.2,–
COC(=O)c1[nH]c2ccccc2c1NC(=O)CN1CCC(Cc2ccccc2)CC1 [Example 24],6,–
COC(=O)c1[nH]c2ccc(C)cc2c1NC(=O)CN1CCN(c2cccc(C)c2C)CC1 [Example 27],5.9,–
O=C(CN1CCN(Cc2ccccc2)CC1)Nc1c(C(=O)C2CC2)[nH]c2ccc(Br)cc12 [Example 14],6.2,–

# Source: US10294214B2, “Positive allosteric modulators of human melanocortin-4 receptor” (Vanderbilt University, priority 2016, dated 2019)
